Kd data for one molecule are collected here from PMC7848910, “Multimodularity of a GH10 Xylanase Found in the Termite Gut Metagenome” (Applied and Environmental Microbiology, 2021).

Common to all, as to assay: microscale thermophoresis, initial fluorescence analysis, RED-NHS labelled protein
What all share (type): binding
Conditions in all cases: 50 mM phosphate pH 7, 0.05% Pluronic F-127
(In MST a laser heats a spot of the sample, and binding alters the fluorescence response.)

One test addresses T1, CBM4-2 (M9) (termite gut metagenome, UniProt S0DFK9).
T1 construct: gene Pm25; isolated CBM4-2 domain, D332-D484 by primer name (domain 324-486), pET28a(+), E. coli Tuner(DE3), TALON-purified

Test [1] concerns the target T2, Pm25ΔCBMs (M6; M7 = Pm25ΔCBMs E546A) (termite gut metagenome, UniProt S0DFK9, E546A, form not given).
T2 construct: gene Pm25; Pm25 without its two inserted CBM4s (catalytic domain 66-151 and 514-753); synthetic gene, E. coli Tuner(DE3), TALON-purified

In another test the target is T3, CBM4-1 (M8) (termite gut metagenome, UniProt S0DFK9).
T3 construct: gene Pm25; isolated CBM4-1 domain, L167-L320 by primer name (domain 161-321), pET28a(+), E. coli Tuner(DE3), TALON-purified
T3 sequence (S0DFK9 167-320 limits assumed): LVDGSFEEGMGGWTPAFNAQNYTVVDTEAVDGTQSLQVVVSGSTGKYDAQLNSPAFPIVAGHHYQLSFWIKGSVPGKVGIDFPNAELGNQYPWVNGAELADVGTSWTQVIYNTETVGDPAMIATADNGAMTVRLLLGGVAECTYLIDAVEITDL

T2 sequence (S0DFK9 30-160 limits assumed, stated change not applied): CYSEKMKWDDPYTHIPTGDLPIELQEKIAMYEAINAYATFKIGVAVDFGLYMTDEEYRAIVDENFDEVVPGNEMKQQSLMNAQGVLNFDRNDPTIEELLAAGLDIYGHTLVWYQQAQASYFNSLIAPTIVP
T2 sequence (S0DFK9 487-776 E546A limits assumed): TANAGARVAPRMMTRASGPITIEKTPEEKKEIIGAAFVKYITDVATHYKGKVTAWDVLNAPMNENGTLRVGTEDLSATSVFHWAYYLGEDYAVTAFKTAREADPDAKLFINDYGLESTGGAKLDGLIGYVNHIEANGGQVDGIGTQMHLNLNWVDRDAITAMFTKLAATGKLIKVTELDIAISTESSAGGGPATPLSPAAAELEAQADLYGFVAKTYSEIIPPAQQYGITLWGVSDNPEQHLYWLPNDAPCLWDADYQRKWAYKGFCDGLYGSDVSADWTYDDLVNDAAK
T1 sequence (S0DFK9 332-484 limits assumed): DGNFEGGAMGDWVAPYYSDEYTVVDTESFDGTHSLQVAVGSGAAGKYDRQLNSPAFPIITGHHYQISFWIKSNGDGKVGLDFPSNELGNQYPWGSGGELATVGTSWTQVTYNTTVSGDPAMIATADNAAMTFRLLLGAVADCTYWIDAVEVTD

For `OC1OC[C@@H](O[C@@H]2OC[C@@H](O[C@@H]3OC[C@@H](O[C@@H]4OC[C@@H](O[C@@H]5OC[C@@H](O[C@@H]6OC[C@@H](O)[C@H](O)[C@H]6O)[C@H](O)[C@H]5O)[C@H](O)[C@H]4O)[C@H](O)[C@H]3O)[C@H](O)[C@H]2O)[C@H](O)[C@H]1O` (stereo partly drawn) [X6, xylohexaose], the Kd at CBM4-2 (M9) is 1800 ± 100 µM; in test [1], 1500 ± 200 µM; on CBM4-1 (M8), 4700 ± 400 µM.

A word on the Kd: it is a measure of binding affinity in units of concentration.
